For the first data set the following is noted: acidic group.
With `O=c1c(O)c1-c1ccc(F)cc1`, the pKa is 2.07. Still for that read-out and setting: under `O=C(O)Cc1ccccc1` stands 4.27; under `O=C(O)C(CO)[NH2+]Cc1ccccc1O` (stereo unspecified), 2.1. `CCc1nnc(CC)n1N` showed a pKa of 9.77. Molecule `Oc1ccc2cccc(Cl)c2c1` registered a pKa of 8.69. On the same count and under the same terms, with `Cc1ccc[n+](O)c1` the figure was 1.08; with `O=C1C=C(S(=O)(=O)[O-])c2cn[nH]c2/C1=N\O`, 5.85; with `O=[N+]([O-])c1cc(Cl)c(O)c(Cl)c1`, 3.7. For the molecule `O=P1(O)CCC1`, the pKa turned out to be 3.07. Still for that read-out and setting: under `O=C(O)CC(c1[nH]cc[nH+]1)c1[nH]cc[nH+]1` stands 2.79. The same measure, in the same setting: with `O=C(O)c1ccccc1-c1nnn[nH]1` the figure was 2.9; with `O=S(=O)(Cc1ccccc1)c1ncc[nH]1`, 8.67; with `COCCNC(=S)S`, 2.85. The same measure, in the same setting: under `[NH3+][C@@H](Cc1c[nH]c2ccccc12)C(=O)O` stands 2.2; under `O=C(O)c1coc2ccccc12`, 4.18; under `Cc1cccc(C(=O)O)c1O`, 3.02. With `[NH3+]C(c1cccc(O)c1O)P(=O)([O-])[O-]` (stereo unspecified), the pKa stood at 9.44. With `O=[N+]([O-])c1ccc(NC=S)cc1`, the pKa stood at 10.1.

On to `CC(C)=CCC1C(=O)C(C(=O)CC(C)C)C(=O)C(CC=C(C)C)(CC=C(C)C)C1=O` (stereo unspecified), for which the pKa is 6.18.

`O=C(O)c1ncccn1` displayed a pKa of 2.85. Still for that read-out and setting: under `O=C(O)c1ccoc1` stands 3.94. Same read-out and setting: with `O=C(O)CSc1ccc(S)cc1` the figure was 3.77; with `[O-][n+]1cnc(NCc2ccccc2)c2nc[nH]c21`, 7.27. The same measure, in the same setting: with `O=S(=O)(Nc1ccccc1)c1ccccc1` the figure was 8.22; with `C#CC#CC#CCC(O)CCC(=O)O` (stereo unspecified), 4.75; with `Cc1ccc(O)cc1Cc1cc([N+](=O)[O-])ccc1O`, 7.03. On to `O=[N+]([O-])c1n[nH]c(-n2cnc(Br)n2)n1`, for which the pKa was found to be 1.63. Same read-out and setting: with `CC(C)N(Cc1ccccc1O)C(C)C` the figure was 11.4; with `CN(C)/C=N/c1ccc(O)cc1`, 10.5.

In the case of `CC(=O)[n+]1ccc(N(C)C)cc1`, the pKa came to 9.55.

`Cc1nc2ncncc2[nH]1`: the pKa stood at 9.37. The same measure, in the same setting: under `C[N+](C)(C)/N=C(/O)c1ccccc1` stands 4.29. Same read-out and setting: under `O=C(O)[C@@H]1CCC[C@H](O)C1` stands 4.6. `O=C(O)[C@H]1C[C@@H]1c1cccc(Cl)c1` gave a pKa of 4.51. Same read-out and setting: under `C[NH+](C)CC[SeH]` stands 4.74. `CC(c1cccc(Cl)c1)[N+](=O)[O-]` (stereo unspecified): the pKa came out at 7.05.

`CN(O)C(=O)c1ccc([N+](=O)[O-])cc1` gave a pKa of 7.92. Still for that read-out and setting: under `O=P(O)(O)C([NH2+]Cc1ccc[nH+]c1)c1ccccc1O` (stereo unspecified) stands 2.28; under `C[N+](=O)[O-]`, 10.5; under `Cc1ccc(C(=O)N(C)O)cc1`, 8.5.

For `C[Si](C)(C)CCCCC(=O)O`, the pKa was determined as 4.96. On the same count and under the same terms, under `C[NH+](C)CCCCCCCNC(=O)/C=N/O` stands 8.98; under `C[C@@H]1[NH2+][C@H](CCCCCCCC(=O)O)CC[C@@H]1O`, 4.6. Same read-out and setting: with `Cc1cc(O)nn1-c1ccccc1C(=O)N1CCCCC1` the figure was 12.4; with `Oc1ccc(/N=N/c2nccs2)c(O)c1`, 1.56. On the same count and under the same terms, under `Cc1cc(O)c(C(C)C)cc1Nc1ccc([O-])cc1` stands 10.8.

In turn, `CCOC(=O)[C@H]1CC(=O)N[C@@H]1C(=O)O` displayed a pKa of 3.5. The same measure, in the same setting: with `Oc1ccccc1F` the figure was 8.81; with `[O-]/N=C1\CCCC\C1=N/O`, 12.6; with `COC(=O)/C=C(/C)O`, 9.48. Molecule `O=C1C=C(S(=O)(=O)[O-])/C(=N\O)c2cn[nH]c21` gave a pKa of 8.6. In turn, `N#CC(C#N)=C(C#N)Nc1ccc(C(=O)O)cc1` displayed a pKa of 4.2. The same measure, in the same setting: with `O=C(O)C(c1ccc(C2CCCCC2)cc1)C(O)c1ccccc1` (stereo unspecified) the figure was 4.24; with `O=c1[nH]c(=O)c2ncn([C@H]3O[C@@H](CO)[C@H](O)[C@@H]3O)c2[nH]1`, 5.72; with `[NH3+]C(c1cccc(O)c1[O-])P(=O)([O-])[O-]` (stereo unspecified), 12.4. On the same count and under the same terms, with `N[C@@H](Cc1nc[nH]c1I)C(=O)[O-]` the figure was 12.4.

`[NH3+]C/C=C\C(=O)O` registered a pKa of 3.53. The same measure, in the same setting: under `CC(C)(O)C(C(=O)O)c1ccc(-c2ccccc2)cc1` (stereo unspecified) stands 3.76; under `CCC1C(=O)COC1=O` (stereo unspecified), 4.29.

Turning to `CC(=O)c1c(C(=O)O)cccc1[N+](=O)[O-]`, the pKa was 3.26. Consider `O=Nc1c(O)ccc2ncsc12`, for which the pKa was determined as 5.43. Still for that read-out and setting: with `C/C=C(\C(=O)O)c1ccc([N+](=O)[O-])cc1` the figure was 5; with `COc1ccc(O)cc1Br`, 9.09; with `O=C(NO)c1ccccn1`, 8.6.

Staying with this data set, now noted: basic group.
As to `Cc1ccc(OC(=O)CCCCN(C)C)cc1`, the pKa turned out to be 9.87. Molecule `Cn1cncc1C[C@H](NC(=O)CCN)C(=O)[O-]` came in with a pKa of 9.53.

Molecule `[NH3+]c1ccc(-c2ncc(-c3ccccc3)o2)cc1` displayed a pKa of 0.06.

Take `NCCCNCCO`: the pKa amounted to 10.3. `CCCCCC(C)N` (stereo unspecified) had a pKa of 11.2. Same read-out and setting: with `O=C([O-])c1nc[nH]c1C(=O)[O-]` the figure was 8.49; with `CCOC(=O)c1cccnc1`, 3.2; with `NC(=S)C1([NH3+])CCCCC1`, -8.08.

As to `CCOc1ccc2[nH]c(C(C)C)nc2c1`, the pKa stood at 6.17. Same read-out and setting: under `O=C([O-])/C=C/c1c[nH]cn1` stands 5.85; under `Cc1ccccc1C(=N)c1ccccc1`, 7.21. For `CN(C)/C=N/c1cccc([N+](=O)[O-])c1`, the pKa worked out at 7.29. On the same count and under the same terms, under `CC1=Nc2ccc(C)cc2N=C(C)C1` stands 4; under `Cn1cncn1`, 2.31; under `O=C(O)c1ncccn1`, -1.13. Same read-out and setting: under `CCCCc1nc(N)c2ncsc2n1` stands 3.49; under `O=C(O)c1ccoc1`, -0.59. Same read-out and setting: under `Nc1ccccc1Br` stands 2.4; under `C[C@H]1CCN2CCC[C@@H]12`, 11.4. For `[O-][n+]1cnc(NCc2ccccc2)c2nc[nH]c21`, the pKa was found to be 2.86. The same measure, in the same setting: under `OCC1=CCN2CC[C@@H](O)[C@@H]12` stands 8.92. Still for that read-out and setting: under `CCC(O)CN(CCO)C(C)(C)C` (stereo unspecified) stands 9.4. Still for that read-out and setting: with `[NH3+][C@@H](Cc1nc[nH]c1I)C(=O)[O-]` the figure was 4.18.

`O=C(Nc1ccncc1)c1ccccc1` had a pKa of 5.32. Still for that read-out and setting: with `c1ccnnc1` the figure was 2.33. Still for that read-out and setting: with `CCN(CC)CC(=O)Nc1ccc([N+](=O)[O-])cc1` the figure was 8.05; with `CNCC/C(N)=N/O`, 9.6; with `O=C([O-])C1CCCCN1` (stereo unspecified), 10.6.

On to `CCN(CC)CCC[C@@H](C)[C@H]1CC[C@H]2[C@@H]3CC[C@@H]4C[C@H](O)CC[C@]4(C)[C@H]3C[C@H](O)[C@]12C`, for which the pKa was determined as 10.3. The same measure, in the same setting: with `O=C(/C=C1/C=CC=CN1)c1ccccc1` the figure was 6.08. On the same count and under the same terms, under `CC(C)N(Cc1ccccc1O)C(C)C` stands 7.55.

`CCOC(=O)C(N)CC` (stereo unspecified) had a pKa of 7.71. On the same count and under the same terms, with `CC(C)c1ccccc1N` the figure was 4.42.

In turn, `[O-]c1c(Cl)cc(Cl)cc1CN1CCOCC1` displayed a pKa of 8.85.

As to `CN(C)/C=N/c1ccc(O)cc1`, the pKa was 8.28. With `Cc1nc2ncncc2[nH]1`, the pKa amounted to 2.85.

Turning to `COc1cc2c(OC)ncnc2c(OC)c1OC`, the pKa is 3.34.

For the molecule `C(CNCCc1nnn[n-]1)NCCc1nnn[n-]1`, the pKa came out at 9.33. On the same count and under the same terms, with `CCCCCCCCCCCCCCCCCCCCCCN` the figure was 10.6; with `Nc1ccc2cccc([N+](=O)[O-])c2c1`, 2.86.

As for `COc1ccc2c(c1)NCCN2`, the pKa came out at 5.26. Molecule `C[Si](C)(C)OC1CN(Cc2ccc(F)cc2)C1` returned a pKa of 7.91. Consider `CC[NH+](CC)CCN=C(c1ccccc1C)c1ccccc1C`, for which the pKa is 2.8. Same read-out and setting: under `OCCN(CCO)c1ccccc1` stands 4.11; under `CN(C)N(C)C`, 6.19; under `CON(C)C`, 3.65. The same measure, in the same setting: with `CN(C)CCC(c1ccccc1)c1ccccc1` the figure was 9.4.

Molecule `C[C@@H]1C[NH2+][C@@H](C)CN1` returned a pKa of 5.29. The same measure, in the same setting: with `c1ccc(-c2cc(-c3ccccc3)c(NCC[NH+]3CCOCC3)nn2)cc1` the figure was 3.36; with `CN(C)c1ccc(C(=N)c2ccc(N(C)C)cc2)cc1`, 10.7; with `CN1CC=CC1`, 9.92. Same read-out and setting: with `Cc1ccccc1CN` the figure was 9.23. Still for that read-out and setting: with `Cc1nc2ccccc2n1C` the figure was 6.55; with `c1ccc(N2CCCC2)cc1`, 4.3. Turning to `C[Si](C)(CNC1CCCCC1)O[Si](C)(C)CNC1CCCCC1`, the pKa worked out at 10.1. The same measure, in the same setting: with `CN(C)CCc1nnn[n-]1` the figure was 9.39; with `Cc1cccc(-n2nnnc2N)c1`, 1.08. Still for that read-out and setting: under `C[C@@H]1CN[C@@H](C)CN1` stands 9.76; under `Nc1ncc(Sc2ccccc2)s1`, 4.16. On the same count and under the same terms, under `C=CCN(C)CCOC(=O)C(=C)C` stands 7.39; under `[NH3+]CCCCCc1cccnc1`, 5.61.

For `COc1ncc2ccccc2n1`, the pKa amounted to 1.31. On the same count and under the same terms, under `c1ccc(NC2CCCC2)cc1` stands 5.3; under `Cc1cc(C)n(Cc2cc(C)[nH]n2)n1`, 3.5; under `O=P([O-])([O-])c1cn2c(n1)[C@@H](O)[C@H](O)[C@@H](O)[C@@H]2CO`, 7.69. Same read-out and setting: with `COc1ccnnc1` the figure was 3.7. In the case of `CC(C)(C)c1ccncc1`, the pKa is 5.95.

Take `CCCCCCCCCCCC[NH2+]CCCN`: the pKa is 8.37. Same read-out and setting: under `NC(=S)c1ccccc1` stands -3.2; under `Cc1ccccc1C(=NCCC[NH+](C)C)c1ccccc1C`, 4.3; under `C1CCCNCC1`, 11. Same read-out and setting: under `C[C@@H]1N[C@H](CCCCCCCC(=O)[O-])CC[C@@H]1O` stands 10.4. The same measure, in the same setting: under `N[C@@H](Cc1nc[nH]c1I)C(=O)[O-]` stands 8.62; under `Cc1cc(O)cc(O)c1C(=N)c1ccccc1`, 6.75.

Turning to `COC1CC2CCN1CC2` (stereo unspecified), the pKa amounted to 8.87. Same read-out and setting: with `Cc1nnc2c(c1C)CCCC2` the figure was 5.41. Regarding `c1cncc(-c2ccco2)c1`, the pKa was 4.62.

The values above are taken from the pKa sets of Baltruschat and Czodrowski (2020).
